Measured values published in ChEMBL document CHEMBL1926563, “Synthesis, antimicrobial, antimycobacterial and structure-activity relationship of substituted pyrazolo-, isoxazolo-, pyrimido- and mercaptopyrimidocyclohepta[b]indoles” (2012).
≈ marks a conversion by molar mass, not a printed value. Calls of active or inactive are those of the source. The rule behind the calls is not given here.

Experiments:
Klebsiella pneumoniae [1] = assay: Antibacterial activity against Klebsiella pneumoniae NCIM 2957 assessed as zone of inhibition at 200 ug/disc after 24 hrs by disk diffusion method; assay type: functional; conditions: NCIM 2957, 24 h, read-out: DIZ
Proteus vulgaris [2] = assay: Antibacterial activity against Proteus vulgaris NCIM 2027 assessed as zone of inhibition at 100 ug/disc after 24 hrs by disk diffusion method; assay type: functional; conditions: NCIM 2027, 24 h, read-out: DIZ
Staphylococcus aureus [3] = assay: Antibacterial activity against Staphylococcus aureus NCIM 5021 assessed as zone of inhibition at 100 ug/disc after 24 hrs by disk diffusion method; assay type: functional; conditions: NCIM 5021, 24 h, read-out: DIZ
Curvularia lunata [4] = assay: Antifungal activity against Curvularia lunata NCIM 716 assessed as zone of inhibition at 200 ug/disc after 48 hrs by disk diffusion method; assay type: functional; conditions: NCIM 716, 48 h, read-out: DIZ
Fusarium solani [5] = assay: Antifungal activity against Fusarium solani NCIM 1330 assessed as zone of inhibition at 200 ug/disc after 48 hrs by disk diffusion method; assay type: functional; conditions: NCIM 1330, 48 h, read-out: DIZ
Aspergillus niger [6] = assay: Antifungal activity against Aspergillus niger NCIM 596 assessed as zone of inhibition at 100 ug/disc after 48 hrs by disk diffusion method; assay type: functional; conditions: NCIM 596, 48 h, read-out: DIZ
Fusarium solani [7] = assay: Antifungal activity against Fusarium solani NCIM 1330 assessed as zone of inhibition at 100 ug/disc after 48 hrs by disk diffusion method; assay type: functional; conditions: NCIM 1330, 48 h, read-out: DIZ
Staphylococcus aureus [8] = assay: Antibacterial activity against Staphylococcus aureus NCIM 5021 assessed as zone of inhibition at 200 ug/disc after 24 hrs by disk diffusion method; assay type: functional; conditions: NCIM 5021, 24 h, read-out: DIZ
Proteus vulgaris [9] = assay: Antibacterial activity against Proteus vulgaris NCIM 2027 assessed as zone of inhibition at 200 ug/disc after 24 hrs by disk diffusion method; assay type: functional; conditions: NCIM 2027, 24 h, read-out: DIZ
Curvularia lunata [10] = assay: Antifungal activity against Curvularia lunata NCIM 716 assessed as zone of inhibition at 100 ug/disc after 48 hrs by disk diffusion method; assay type: functional; conditions: NCIM 716, 48 h, read-out: DIZ
Bacillus subtilis [11] = assay: Antibacterial activity against Bacillus subtilis NCIM 2063 assessed as zone of inhibition at 200 ug/disc after 24 hrs by disk diffusion method; assay type: functional; conditions: NCIM 2063, 24 h, read-out: DIZ
[12] = test system: Mycobacterium tuberculosis; assay: Antimycobacterial activity against Mycobacterium tuberculosis H37Rv after 7 days by resazurin microtiter plate assay; assay type: functional; conditions: 168 h
Aspergillus niger [13] = assay: Antifungal activity against Aspergillus niger NCIM 596 assessed as zone of inhibition at 200 ug/disc after 48 hrs by disk diffusion method; assay type: functional; conditions: NCIM 596, 48 h, read-out: DIZ
Bacillus subtilis [14] = assay: Antibacterial activity against Bacillus subtilis NCIM 2063 assessed as zone of inhibition at 100 ug/disc after 24 hrs by disk diffusion method; assay type: functional; conditions: NCIM 2063, 24 h, read-out: DIZ
Klebsiella pneumoniae [15] = assay: Antibacterial activity against Klebsiella pneumoniae NCIM 2957 assessed as zone of inhibition at 100 ug/disc after 24 hrs by disk diffusion method; assay type: functional; conditions: NCIM 2957, 24 h, read-out: DIZ
[16] = test system: Mycobacterium tuberculosis; assay: Antimycobacterial activity against Mycobacterium tuberculosis H37Rv at 1.5 to 50 ug/ml after 7 days by resazurin microtiter plate assay; assay type: functional, organism-based

Row | SMILES | zone of inhibition at 200 µg/disc (Klebsiella pneumoniae [1]) [mm] | zone of inhibition at 100 µg/disc (Proteus vulgaris [2]) [mm] | zone of inhibition at 100 µg/disc (Staphylococcus aureus [3]) [mm] | zone of inhibition at 200 µg/disc (Curvularia lunata [4]) [mm] | zone of inhibition at 200 µg/disc (Fusarium solani [5]) [mm] | zone of inhibition at 100 µg/disc (Aspergillus niger [6]) [mm] | zone of inhibition at 100 µg/disc (Fusarium solani [7]) [mm] | zone of inhibition at 200 µg/disc (Staphylococcus aureus [8]) [mm] | zone of inhibition at 200 µg/disc (Proteus vulgaris [9]) [mm] | zone of inhibition at 100 µg/disc (Curvularia lunata [10]) [mm] | zone of inhibition at 200 µg/disc (Bacillus subtilis [11]) [mm] | MIC [12] [µg/mL] | zone of inhibition at 200 µg/disc (Aspergillus niger [13]) [mm] | zone of inhibition at 100 µg/disc (Bacillus subtilis [14]) [mm] | zone of inhibition at 100 µg/disc (Klebsiella pneumoniae [15]) [mm] | MIC [16]
1 | Cc1ccc2[nH]c3c(c2c1)CCCc1c[nH]nc1-3 | 30 | 24 | 30 | 36 | 37 | 31 | 34 | 32 | 25 | 33 | 33 | 50 (≈ 211 µM) | 34 | 31 | 28 | 
2 | Sc1ncc2c(n1)-c1[nH]c3ccccc3c1CCC2 | 11 | 8 | 11 | 16 | 14 | 10 | 11 | 13 | 10 | 13 | 14 |  | 13 | 12 | 9 | inactive
3 | Cc1cccc2c3c([nH]c12)C(=O)/C(=C/O)CCC3 |  |  |  |  |  |  |  |  |  |  |  | 50 (≈ 207 µM) |  |  |  | 
4 | Cc1cccc2c3c([nH]c12)-c1c(cnn1-c1ccccc1)CCC3 |  |  |  |  |  |  |  |  |  |  |  | 25 (≈ 79.8 µM) |  |  |  | 
5 | Cc1ccc2c3c([nH]c2c1)-c1nocc1CCC3 |  |  |  |  |  |  |  |  |  |  |  | 25 (≈ 105 µM) |  |  |  | 
6 | Cc1ccc2[nH]c3c(c2c1)CCCc1cnc(O)nc1-3 | 23 | 19 | 23 | 21 | 19 | 15 | 14 | 25 | 21 | 18 | 24 | 50 (≈ 188 µM) | 18 | 21 | 21 | 
7 | Cc1ccc2c3c([nH]c2c1)-c1c(cnn1-c1ccccc1)CCC3 |  |  |  |  |  |  |  |  |  |  |  | 25 (≈ 79.8 µM) |  |  |  | 
8 | c1ccc(-n2ncc3c2-c2[nH]c4ccccc4c2CCC3)cc1 | 24 | 20 | 25 | 31 | 33 | 26 | 28 | 27 | 23 | 29 | 26 |  | 30 | 24 | 21 | inactive
9 | Cc1ccc2c3c([nH]c2c1)-c1n[nH]cc1CCC3 |  |  |  |  |  |  |  |  |  |  |  | 25 (≈ 105 µM) |  |  |  | 
10 | Cc1ccc2c3c([nH]c2c1)-c1nc(O)ncc1CCC3 |  |  |  |  |  |  |  |  |  |  |  |  |  |  |  | inactive
11 | Cc1cccc2c3c([nH]c12)-c1nocc1CCC3 |  |  |  |  |  |  |  |  |  |  |  | 25 (≈ 105 µM) |  |  |  | 
12 | Cc1ccc2[nH]c3c(c2c1)CCC/C(=C\O)C3=O | 28 | 22 | 26 | 28 | 26 | 23 | 23 | 29 | 25 | 26 | 30 | 25 (≈ 104 µM) | 27 | 28 | 25 | 
13 | Cc1cccc2c3c([nH]c12)-c1nc(O)ncc1CCC3 |  |  |  |  |  |  |  |  |  |  |  |  |  |  |  | inactive
14 | Cc1cccc2c3c([nH]c12)-c1n[nH]cc1CCC3 |  |  |  |  |  |  |  |  |  |  |  | 25 (≈ 105 µM) |  |  |  | 
15 | Cc1cccc2c3c([nH]c12)-c1nc(S)ncc1CCC3 |  |  |  |  |  |  |  |  |  |  |  | 50 (≈ 178 µM) |  |  |  | 
16 | c1ccc2c3c([nH]c2c1)-c1nocc1CCC3 | 27 | 24 | 26 | 30 | 31 | 26 | 28 | 27 | 25 | 28 | 29 |  | 29 | 26 | 25 | inactive
17 | Cc1ccc2c3c([nH]c2c1)C(=O)/C(=C/O)CCC3 |  |  |  |  |  |  |  |  |  |  |  |  |  |  |  | inactive
18 | Cc1ccc2[nH]c3c(c2c1)CCCc1conc1-3 | 29 | 26 | 29 | 32 | 34 | 28 | 31 | 31 | 28 | 29 | 32 | 50 (≈ 210 µM) | 31 | 30 | 26 | 
19 | O=C1/C(=C/O)CCCc2c1[nH]c1ccc(Cl)cc21 | 30 | 25 | 31 | 30 | 30 | 25 | 29 | 33 | 28 | 27 | 32 | 25 (≈ 95.5 µM) | 31 | 28 | 28 | 
20 | Cc1ccc2c3c([nH]c2c1)-c1nc(S)ncc1CCC3 |  |  |  |  |  |  |  |  |  |  |  | 50 (≈ 178 µM) |  |  |  | 
21 | Cc1ccc2[nH]c3c(c2c1)CCCc1cnc(S)nc1-3 | 12 | 10 | 13 | 20 | 16 | 14 | 13 | 15 | 12 | 16 | 16 | 50 (≈ 178 µM) | 16 | 14 | 11 | 
22 | c1ccc2c3c([nH]c2c1)-c1n[nH]cc1CCC3 | 26 | 22 | 27 | 33 | 35 | 28 | 30 | 29 | 25 | 31 | 28 |  | 31 | 26 | 23 | inactive
23 | O=C1/C(=C/O)CCCc2c1[nH]c1ccccc21 | 26 | 23 | 24 | 25 | 23 | 23 | 21 | 26 | 25 | 24 | 27 | 50 (≈ 220 µM) | 25 | 26 | 24 | 
24 | Oc1ncc2c(n1)-c1[nH]c3ccccc3c1CCC2 | 24 | 21 | 25 | 18 | 16 | 11 | 13 | 28 | 23 | 16 | 29 |  | 15 | 27 | 22 | inactive
